{
  "source": "patent US20100008971A1",
  "about": "“CHEWING COMPOSITION COMPRISING COENZYME Q10” (SAN-EI GEN F.F.I., INC., priority 2006, published 2010)",
  "key": {"[1]": {"experiment": "Release of Coenzyme Q10 into saliva from stick gums chewed by four subjects (HPLC of chewed gum)", "format": "in vivo, human", "conditions": "0.048 wt % CoQ10 in gum, 1 g chewed 5 min, 60 times/min", "procedure": "Using one of Samples 1 to 5 obtained above, raw materials were blended according to the formulation shown below such that the content of Coenzyme Q10 in 100 g of the resulting stick gum would be 48 mg, and each mixture was molded to form a stick gum. Specific procedures are as follows: A gum base was first kneaded at 70° C. with sugar, corn syrup and glycerol, and the mixture was blended with Lemon Oil No. 2451* (flavoring agent) and San Yellow^‡ No. 3* (colorant). One each of Samples 1, 2, 3, 4 or 5 was then added to the resulting mixture. After cooling to room temperature, each material was rolled and molded to prepare a chewing gum (stick gum). The gum base used in the following formulation was purchased from Lotte, Co., Ltd. (Gum Base LT1).\nEach type of the stick gums thus prepared was sampled in a precise amount of 4 g, and placed in a stoppered centrifuge tube. To the tube was added 10 ml of a 20% (v/v) tetrahydrofuran aqueous solution. The tube was then equipped with a Dimroth condenser, and the solution was refluxed, while occasionally mixing it by shaking, in a hot bath at 82° C. for 30 minutes. The refluxed solution was then cooled to room temperature, and 15 ml of diethyl ether was added, followed by extraction with shaking for 10 minutes. […]\nThe proportion of Coenzyme Q10 released into saliva was determined based on Equation 1: […]"}, "[2]": {"experiment": "Release of Coenzyme Q10 into saliva from sugar-coated gums with the sample in the sugar coating, chewed by four subjects", "format": "in vivo, human", "conditions": "sugar-coated gum, 0.020 wt % CoQ10 in gum, one piece (1.5 g) chewed 5 min, 60 times/min", "procedure": "Sugar-coated gums (1.5 g/tablet) each comprising Coenzyme Q10 in the sugar coating were prepared in the manner described below such that the content of Coenzyme Q10 in 100 g of the sugar-coated gum was 20 mg.\nA gum base (trade name: Gum Base LT2, manufactured by Lotte, Co., Ltd.) was kneaded at 70° C. with xylitol, corn syrup and glycerol, and after the addition of Lemon Oil No. 2451* (flavoring agent), the mixture was cooled to room temperature and molded to a tablet shape.\nMaltitol and gum arabic were added to water and dissolved by heating. After cooling the mixture to room temperature, one each of Sample 1, 2, 4, 5 or 6 was added and mixed homogeneously.\nThe sugar solutions thus obtained were each spray dried over the gum centers using a coating pan and dried. The proportion of the sugar-coating layer was 50 parts by weight to 100 parts by weight of the gum center. […]\nEach type of the sugar-coated gums prepared above were sampled in a precise amount of 6 g (total weight of four pieces), and one piece each of these gums was chewed by four subjects under the same conditions as in Test Example 1. […] The samples were subjected to HPLC under the same conditions to determine the contents of Coenzyme Q10 in the chewed gums, and then the release of Coenzyme Q10 into saliva from these gums was evaluated as in Test Example 1."}},
  "data": [
    {"molecule": "COC1=C(OC)C(=O)C(C/C=C(\\C)CC/C=C(\\C)CC/C=C(\\C)CC/C=C(\\C)CC/C=C(\\C)CC/C=C(\\C)CC/C=C(\\C)CC/C=C(\\C)CC/C=C(\\C)CCC=C(C)C)=C(C)C1=O", "note": "[Sample 5, Coenzyme Q10]", "values": [
      {"measurement": "Release (%) of Coenzyme Q10 into saliva", "setting": "[1]", "value": 0, "unit": "%"},
      {"measurement": "Release (%) of Coenzyme Q10 into saliva", "setting": "[2]", "value": 30.0, "unit": "%"}
    ]}
  ]
}
